Five compounds from paper PMC12467033, “Exploring the Inhibitory Potential of Six Porphyrin Compounds Against α-Amylase and α-Glucosidase Linked to Diabetes” (Biomolecules, 2025) can be followed below.

One data set can be described thus: MTT cytotoxicity assay. The class given is cell-based, human. As to conditions: human, HepG2 cells; for viability at 24 h: read-out: cell viability. How it is done:
The cytotoxicity of six porphyrin compounds against human hepatocellular carcinoma HepG2 cells was evaluated using the MTT assay. HepG2 cells were seeded into 96-well plates at a density of 5000 cells per well and cultured for 24 h at 37 °C in a 5% CO2 incubator. Then, 100 µL of sample solutions at various concentrations (50, 100, and 200 µg/mL) was added to the experimental wells, with blank control wells and solvent control wells also included. The cells were further incubated for 24 h. After incubation, 10 µL of MTT solution (5 mg/mL) was added to each well, and the plates were incubated for another 4 h. Subsequently, 100 µL of Formazan solubilization solution was added to each well, followed by gentle mixing. The plates were returned to the incubator and maintained until complete dissolution of Formazan crystals was observed under a microscope. The absorbance at 570 nm was measured using a microplate reader (Meigu Molecular Instrument Company, Shanghai, China), and the survival rate of HepG2 cells was calculated.(12) Cell viability=As-Ab/Ac-Ab×100%
In the formula, As represents the absorbance of the sample well, Ac denotes the absorbance of the blank control well (without the drug), and Ab refers to the absorbance of the solvent control well (devoid of both cells and the drug).

The next data set has as its target T1, α-amylase (Sus scrofa, UniProt P00690).
T1 sequence (P00690 16-511): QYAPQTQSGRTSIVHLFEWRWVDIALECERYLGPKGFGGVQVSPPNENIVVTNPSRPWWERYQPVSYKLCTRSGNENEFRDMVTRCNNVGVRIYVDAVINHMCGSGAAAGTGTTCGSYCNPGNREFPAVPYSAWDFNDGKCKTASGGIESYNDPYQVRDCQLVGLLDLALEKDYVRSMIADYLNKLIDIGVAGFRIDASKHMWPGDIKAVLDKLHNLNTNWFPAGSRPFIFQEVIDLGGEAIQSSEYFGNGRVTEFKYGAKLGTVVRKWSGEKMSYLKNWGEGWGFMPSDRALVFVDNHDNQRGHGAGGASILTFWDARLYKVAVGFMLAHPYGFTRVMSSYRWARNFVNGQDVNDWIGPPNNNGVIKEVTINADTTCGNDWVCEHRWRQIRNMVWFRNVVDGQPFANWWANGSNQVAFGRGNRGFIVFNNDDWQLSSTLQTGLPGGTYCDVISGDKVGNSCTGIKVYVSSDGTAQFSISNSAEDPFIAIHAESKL
Put plainly: α-Amylase inhibitory activity assay (Gal-G2-α-CNP substrate). The class given is biochemical. As to conditions: 37 °C, pH 6.8. The method, then: The inhibitory activity detection process was slightly modified, with reference as the base method from the literature. […] After thorough mixing, the samples were pre-incubated at 37 °C for 10 min. Subsequently, 100 μL of 5 mmol/L Gal-G2-α-CNP substrate was added to each sample. Following a 3 min reaction period, the absorbance of the solutions at 405 nm was measured using a microplate reader. The inhibition rate (%) was calculated based on the absorbance readings according to Formula (1).(1) inhibition rate%=(1−(A1−A2)/(A3−A4))×100
In the formula, A1 represents the sample group; A2 represents the sample control group (where the enzyme was replaced with phosphate buffer); A3 represents the blank control group; and A4 represents the reagent blank control group (containing blank sample solution and phosphate buffer).
Using the enzyme inhibition rate as the y-axis and the inhibitor concentration as the x-axis, the IC50 value was calculated through linear regression fitting with GraphPad Prism software (5.0).

The term viability denotes a per cent measure of how many cells are alive, often set against a control.

Read-outs that look alike come from different tables or passages of the source.

For `Nc1ccc(-c2c3nc(c(-c4ccc(N)cc4)c4ccc([nH]4)c(-c4ccc(N)cc4)c4nc(c(-c5ccc(N)cc5)c5ccc2[nH]5)C=C4)C=C3)cc1` [TAPP], the viability at 24 h in the data set “MTT cytotoxicity assay” (HepG2, 50–200 μg/mL) is more than 97%.

Regarding `O=C(O)c1ccc(-c2c3nc(c(-c4ccc(C(=O)O)cc4)c4ccc([nH]4)c(-c4ccc(C(=O)O)cc4)c4nc(c(-c5ccc(C(=O)O)cc5)c5ccc2[nH]5)C=C4)C=C3)cc1.[Ni+2]` [Ni–TCPP, nickel (II) meso-tetra (4-carboxyphenyl) porphine], at α-amylase, the “IC50 α-amylase” value worked out at 156.26 ± 0.48 µg/mL.

Regarding `O=C(O)c1ccc(-c2c3nc(c(-c4ccc(C(=O)O)cc4)c4ccc([nH]4)c(-c4ccc(C(=O)O)cc4)c4nc(c(-c5ccc(C(=O)O)cc5)c5ccc2[nH]5)C=C4)C=C3)cc1` [TCPP], the viability at 24 h, 200 µg/mL in the data set “MTT cytotoxicity assay” (HepG2, 200 μg/mL, read-out: cell viability (survival rate)) is 30.3 ± 3.45%. In “MTT cytotoxicity assay” (HepG2, 50–100 μg/mL), the viability at 24 h was more than 80%.

As for “iron (III) meso-tetra (4-carboxyphenyl) porphyrin chloride [Fe–TCPP]”, on α-amylase, the “IC50 α-amylase” value was determined as 95.75 ± 0.62 µg/mL.

With `O=C(O)c1ccc(-c2c3nc(c(-c4ccc(C(=O)O)cc4)c4ccc([nH]4)c(-c4ccc(C(=O)O)cc4)c4nc(c(-c5ccc(C(=O)O)cc5)c5ccc2[nH]5)C=C4)C=C3)cc1.[Cu+2]` [Cu–TCPP, copper (II) meso-tetra (4-carboxyphenyl)porphyrin], the “IC50 α-amylase” value at α-amylase amounted to 245.04 ± 0.26 µg/mL.
